Each structure is given as a SMILES string. Calls of active or inactive are those of the source. No rule for the calls is given here.

Consider 4 compounds from PubChem BioAssay AID1259407 (Chemical Carcinogenesis Research Information System (CCRIS), 2018).

The data set relates to CCRIS mutagenicity, Ames/micronucleus/aberration tests. Kind of data set: CCRIS mutagenicity studies.
The mark [1] stands for this setting: Test System: AMES SALMONELLA TYPHIMURIUM, Strain/Indicator: TA98, Metabolic Activation: NONE, Method: PREINCUBATION
The mark [2] stands for this setting: Test System: AMES SALMONELLA TYPHIMURIUM, Strain/Indicator: TA100, Metabolic Activation: NONE, Method: PREINCUBATION
Where [3] appears, read: Test System: AMES SALMONELLA TYPHIMURIUM, Strain/Indicator: TA100, Metabolic Activation: NONE, Method: STANDARD PLATE.

Consider `Cl/C=C\Cl`, for which the mutagenic call (End Point: IN VITRO CHROMOSOMAL ABERRATIONS, Test System: CHINESE HAMSTER LUNG (CHL), Metabolic Activation: NONE) is “inactive; negative”; the mutagenic call (End Point: IN VITRO CHROMOSOMAL ABERRATIONS, Test System: CHINESE HAMSTER LUNG (CHL), Metabolic Activation: RAT. LIVER, S-9, KC-400) is “inactive; negative”; the mutagenic call (Test System: AMES SALMONELLA TYPHIMURIUM, Strain/Indicator: TA97, Metabolic Activation: HAMSTER LIVER S-9, AROCLOR 1254 (10%), Method: PREINCUBATION) was “inactive; negative”; the mutagenic call (Test System: AMES SALMONELLA TYPHIMURIUM, Strain/Indicator: TA97, Metabolic Activation: HAMSTER LIVER S-9, AROCLOR 1254 (30%), Method: PREINCUBATION) was “inactive; negative”; the mutagenic call (Test System: AMES SALMONELLA TYPHIMURIUM, Strain/Indicator: TA97, Metabolic Activation: HAMSTER, LIVER, S-9, AROCLOR 1254 (10%), Method: PREINCUBATION) is “inactive; negative”; the mutagenic call (Test System: AMES SALMONELLA TYPHIMURIUM, Strain/Indicator: TA97, Metabolic Activation: HAMSTER, LIVER, S-9, AROCLOR 1254 (30%), Method: PREINCUBATION) was “inactive; negative”. The mutagenic call is, setting by setting: (Test System: AMES SALMONELLA TYPHIMURIUM, Strain/Indicator: TA97, Metabolic Activation: NONE, Method: PREINCUBATION) “inactive; negative”; (Test System: AMES SALMONELLA TYPHIMURIUM, Strain/Indicator: TA97, Metabolic Activation: RAT LIVER S-9, AROCLOR 1254 (10% OR 30%), Method: PREINCUBATION) “inactive; negative”; (Test System: AMES SALMONELLA TYPHIMURIUM, Strain/Indicator: TA97, Metabolic Activation: RAT, LIVER, S-9, AROCLOR 1254 (10 OR 30%), Method: PREINCUBATION) “inactive; negative”; (Test System: AMES SALMONELLA TYPHIMURIUM, Strain/Indicator: TA98, Metabolic Activation: HAMSTER LIVER S-9, AROCLOR 1254 (10%), Method: PREINCUBATION) “inactive; negative”; (Test System: AMES SALMONELLA TYPHIMURIUM, Strain/Indicator: TA98, Metabolic Activation: HAMSTER LIVER S-9, AROCLOR 1254 (30%), Method: PREINCUBATION) “inactive; negative”; (Test System: AMES SALMONELLA TYPHIMURIUM, Strain/Indicator: TA98, Metabolic Activation: HAMSTER, LIVER, S-9, AROCLOR 1254 (10%), Method: PREINCUBATION) “inactive; negative”. The mutagenic call (Test System: AMES SALMONELLA TYPHIMURIUM, Strain/Indicator: TA98, Metabolic Activation: HAMSTER, LIVER, S-9, AROCLOR 1254 (30%), Method: PREINCUBATION) is “inactive; negative”; the mutagenic call under setting [1] is “inactive; negative”; the mutagenic call (Test System: AMES SALMONELLA TYPHIMURIUM, Strain/Indicator: TA98, Metabolic Activation: RAT LIVER S-9, AROCLOR 1254 (10% OR 30%), Method: PREINCUBATION) is “inactive; negative”; the mutagenic call (Test System: AMES SALMONELLA TYPHIMURIUM, Strain/Indicator: TA98, Metabolic Activation: RAT, LIVER, S-9, AROCLOR 1254 (10 OR 30%), Method: PREINCUBATION) was “inactive; negative”; the mutagenic call (Test System: AMES SALMONELLA TYPHIMURIUM, Strain/Indicator: TA100, Metabolic Activation: HAMSTER LIVER S-9, AROCLOR 1254 (10%), Method: PREINCUBATION) was “inactive; negative”; the mutagenic call (Test System: AMES SALMONELLA TYPHIMURIUM, Strain/Indicator: TA100, Metabolic Activation: HAMSTER LIVER S-9, AROCLOR 1254 (30%), Method: PREINCUBATION) is “inactive; negative”. Besides, the mutagenic call (Test System: AMES SALMONELLA TYPHIMURIUM, Strain/Indicator: TA100, Metabolic Activation: HAMSTER, LIVER, S-9, AROCLOR 1254 (10%), Method: PREINCUBATION) is “inactive; negative”; the mutagenic call (Test System: AMES SALMONELLA TYPHIMURIUM, Strain/Indicator: TA100, Metabolic Activation: HAMSTER, LIVER, S-9, AROCLOR 1254 (30%), Method: PREINCUBATION) was “inactive; negative”; the mutagenic call under setting [2] was “inactive; negative”; the mutagenic call (Test System: AMES SALMONELLA TYPHIMURIUM, Strain/Indicator: TA100, Metabolic Activation: RAT LIVER S-9, AROCLOR 1254 (10% OR 30%), Method: PREINCUBATION) was “inactive; negative”; the mutagenic call (Test System: AMES SALMONELLA TYPHIMURIUM, Strain/Indicator: TA100, Metabolic Activation: RAT, LIVER, S-9, AROCLOR 1254 (10 OR 30%), Method: PREINCUBATION) was “inactive; negative”; the mutagenic call (Test System: AMES SALMONELLA TYPHIMURIUM, Strain/Indicator: TA1535, Metabolic Activation: HAMSTER LIVER S-9, AROCLOR 1254 (10%), Method: PREINCUBATION) was “inactive; negative”. Further, the mutagenic call (Test System: AMES SALMONELLA TYPHIMURIUM, Strain/Indicator: TA1535, Metabolic Activation: HAMSTER, LIVER, S-9, AROCLOR 1254 (10%), Method: PREINCUBATION) was “inactive; negative”; the mutagenic call (Test System: AMES SALMONELLA TYPHIMURIUM, Strain/Indicator: TA1535, Metabolic Activation: HAMSTER, LIVER, S-9, AROCLOR 1254 (30%), Method: PREINCUBATION) was “inactive; negative”; the mutagenic call (Test System: AMES SALMONELLA TYPHIMURIUM, Strain/Indicator: TA1535, Metabolic Activation: NONE, Method: PREINCUBATION) is “inactive; negative”; the mutagenic call (Test System: AMES SALMONELLA TYPHIMURIUM, Strain/Indicator: TA1535, Metabolic Activation: RAT LIVER S-9, AROCLOR 1254 (10% OR 30%), Method: PREINCUBATION) was “inactive; negative”; the mutagenic call (Test System: AMES SALMONELLA TYPHIMURIUM, Strain/Indicator: TA1535, Metabolic Activation: RAT, LIVER, S-9, AROCLOR 1254 (10 OR 30%), Method: PREINCUBATION) is “inactive; negative”; the mutagenic call (Test System: AMES SALMONELLA TYPHIMURIUM, Strain/Indicator: TA1537, Metabolic Activation: HAMSTER LIVER S-9, AROCLOR 1254 (30%), Method: PREINCUBATION) was “inactive; negative”. Moreover, the mutagenic call by setting is: (Test System: AMES SALMONELLA TYPHIMURIUM, Strain/Indicator: TA1537, Metabolic Activation: HAMSTER, LIVER, S-9, AROCLOR 1254 (30%), Method: PREINCUBATION) “inactive; negative”; (Test System: AMES SALMONELLA TYPHIMURIUM, Strain/Indicator: TA1537, Metabolic Activation: NONE, Method: PREINCUBATION) “inactive; negative”; (Test System: AMES SALMONELLA TYPHIMURIUM, Strain/Indicator: TA1537, Metabolic Activation: RAT LIVER S-9, AROCLOR 1254 (30%), Method: PREINCUBATION) “inactive; negative”; (Test System: AMES SALMONELLA TYPHIMURIUM, Strain/Indicator: TA1537, Metabolic Activation: RAT, LIVER, S-9, AROCLOR 1254 (30%), Method: PREINCUBATION) “inactive; negative”.
For the compound `CC(C)C(=O)Nc1snc2ccccc12`, the mutagenic call reads like this: under setting [3], “inactive; negative”; (Test System: AMES SALMONELLA TYPHIMURIUM, Strain/Indicator: TA100, Metabolic Activation: S-9, Method: STANDARD PLATE) “inactive; negative”; (Test System: AMES SALMONELLA TYPHIMURIUM, Strain/Indicator: TA1537, Metabolic Activation: NONE, Method: STANDARD PLATE) “inactive; negative”; (Test System: AMES SALMONELLA TYPHIMURIUM, Strain/Indicator: TA1537, Metabolic Activation: S-9, Method: STANDARD PLATE) “inactive; negative”.
As for `CCc1ccc([N+](=O)[O-])cc1`, the mutagenic call under setting [1] is “inactive; negative”; the mutagenic call (Test System: AMES SALMONELLA TYPHIMURIUM, Strain/Indicator: TA98, Metabolic Activation: RAT, LIVER, S-9, KANECHLOR 500, Method: PREINCUBATION) was “inactive; negative”; the mutagenic call under setting [2] is “inactive; negative”; the mutagenic call (Test System: AMES SALMONELLA TYPHIMURIUM, Strain/Indicator: TA100, Metabolic Activation: RAT, LIVER, S-9, KANECHLOR 500, Method: PREINCUBATION) was “inactive; negative”.
On to `c1ccc2c(c1)cc1sc3cccc4ccc2c1c43`, for which the mutagenic call was “inactive; negative” (Test System: AMES SALMONELLA TYPHIMURIUM, Strain/Indicator: TA98, Metabolic Activation: NONE, Method: STANDARD PLATE); “active; positive” (Test System: AMES SALMONELLA TYPHIMURIUM, Strain/Indicator: TA98, Metabolic Activation: RAT, LIVER, S-9, AROCLOR 1254 (10%), Method: STANDARD PLATE); “inactive; negative” under setting [3]; “inactive; negative” (Test System: AMES SALMONELLA TYPHIMURIUM, Strain/Indicator: TA100, Metabolic Activation: RAT, LIVER, S-9, AROCLOR 1254 (10%), Method: STANDARD PLATE).
